SMILES strings stand for the structures. Where two headings read alike, the source gives them in different places. Some results are limits rather than exact numbers.

Assay type in all cases: cell-based, human
The test system of test [1] is HT-29 (colorectal carcinoma, B-RafV600E) cells. Put plainly: Cell proliferation (Alamar Blue) assay, HT-29. The method in brief: (§1)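 Cells seeded at 5000/well and allowed 16-24 h at 37° C./5% CO2, then exposed to compound (typically 0.0005-10 uM, 3-fold serial dilutions) for 72 h. Viability was read by Alamar Blue fluorescence (ex 540/em 590 nm) after 1-3 h. IC50 came from a variable-slope sigmoidal dose-response fit.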
In general terms: Resazurin is reduced to fluorescent resorufin, in cell work by metabolically active cells.

In test [2] the test system is HCT116 (colorectal carcinoma, K Ras G13D) cells. Put plainly: Cell proliferation (Alamar Blue) assay, HCT116. The method in brief: as §1
Test [3] deals with phosphorylation of RSK1(S380) (the downstream target of ERK1/2). Put plainly: Phospho-RSK1(S380) ELISA assay in HT-29 cells. The note with it: read-out: Mechanistic Cell Assay RSK1 Phos HT29 IC50. The method in brief: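 IC50 values derive from a variable-slope sigmoidal fit of sandwich-ELISA signal (450 nm) for RSK1 Ser380 phosphorylation. The cells were B-RafV600E HT-29 colorectal line, exposed to serially diluted compound for 2 h after overnight seeding, then lysed at 4° C.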
Background: ELISA stands for enzyme-linked immunosorbent assay.

Setting [4] is: Homo sapiens, HT-29, HT29 cells.
[5] abbreviates: Homo sapiens, HCT-116, HCT116 cells.
Setting [6] is: Homo sapiens, HT-29, HT29 cells, phospho-RSK1(S380).

By IC50 is commonly meant the concentration that gives 50% inhibition. Turning to `Cc1cnc(NC2CCOCC2)nc1-n1cnc(C(=O)N[C@H](CN(C)C)c2cccc(Cl)c2)c1` [Example 320, (S)-N-(1-(3-chlorophenyl)-2-(dimethylamino)ethyl)-1-(5-methyl-2-((tetrahydro-2H-pyran-4-yl)amino)pyrimidin-4-yl)-1H-imidazole-4-carboxamide], the IC50 in test [1] (setting [4]) fell in the range of 0.25 to 0.5 µM; in test [2] (setting [5]) it was 0.5 to 2.5 µM; in test [3] (setting [4]), 0.25 to 0.5 µM.
Regarding `Cc1cnc(Nc2cccnc2)cc1-n1ccc(C(=O)NC(CO)c2ccc(F)c(Cl)c2)c1` (stereo not drawn) [Example 171, N-(1-(3-chloro-4-fluorophenyl)-2-hydroxyethyl)-1-(5-methyl-2-(pyridin-3-ylamino)pyridin-4-yl)-1H-pyrrole-3-carboxamide], the half-inhibitory concentration (IC50) in test [1] (setting [4]) is 0.5 to 2.5 µM; in test [2] (setting [5]) it was over 2.5 µM; in test [3] (setting [6]), over 2.5 µM.
Regarding `Cc1cnc(NC2CCOC2)nc1-n1ccc(C(=O)N[C@H](CO)c2ccc(F)c(Cl)c2)c1` (stereo partly drawn) [Example 157, N-((S)-1-(3-chloro-4-fluorophenyl)-2-hydroxy-ethyl)-1-(5-methyl-2-((tetrahydro-furan-3-yl)amino)pyrimidin-4-yl)-1H-pyrrole-3-carboxamide], the half-maximal inhibitory concentration (IC50) in test [1] (setting [4]) lay in the range of 0.25 to 0.5 µM; in test [2] (setting [5]) it was 0.5 to 2.5 µM; in test [3] (setting [6]), 0.25 to 0.5 µM.
As for `Cc1cnc(Nc2ccc(F)cc2Cl)nc1-n1ccc(C(=O)NC(CN)c2cccc(Cl)c2)c1` (stereo not drawn) [Example 169, N-(2-amino-1-(3-chlorophenyl)ethyl)-1-(2-((2-chloro-4-fluorophenyl)amino)-5-methylpyrimidin-4-yl)-1H-pyrrole-3-carboxamide], the IC50 in test [1] (setting [4]) was in the range of 0.25 to 0.5 µM; in test [2] (setting [5]), 0.5 to 2.5 µM; in test [3] (setting [6]), 0.5 to 2.5 µM.
Take `Cc1cnc(Nc2ccc(F)cc2)nc1-n1ccc(C(=O)NC(CO)c2cccc(Cl)c2)c1` (stereo not drawn) [Example 113, N-(1-(3-chloro-phenyl)-2-hydroxy-ethyl)-1-(2-((4-fluoro-phenyl)amino)-5-methyl-pyrimidin-4-yl)-1H-pyrrole-3-carboxamide]: the IC50 in test [1] (setting [4]), in test [2] (setting [5]) and in test [3] (setting [6]) was 0.1 to 0.25 µM each time.
Regarding `CCC(COC)Nc1ncc(C)c(-n2ccc(C(=O)NC(CO)c3cccc(Cl)c3)c2)n1` (stereo not drawn) [Example 127, N-(1-(3-chloro-phenyl)-2-hydroxy-ethyl)-1-(2-((1-methoxy-butan-2-yl)amino)-5-methyl-pyrimidin-4-yl)-1H-pyrrole-3-carboxamide], the figures for the 50% inhibitory concentration (IC50) in test [1] (setting [4]), in test [2] (setting [5]) and in test [3] (setting [6]) were over 2.5 µM, over 2.5 µM and 0.5 to 2.5 µM, respectively.
As to `Cc1cnc(Nc2ccc3c(c2)OC(F)(F)O3)nc1-n1ccc(C(=O)NC(CO)c2cccc(Cl)c2)c1` (stereo not drawn) [Example 62, N-(1-(3-chloro-phenyl)-2-hydroxy-ethyl)-1-(2-((2,2-difluoro-benzo[d][1,3]dioxol-5-yl)amino)-5-methyl-pyrimidin-4-yl)-1H-pyrrole-3-carboxamide], the concentration for half-maximal inhibition (IC50) in test [1] (setting [4]), in test [2] (setting [5]) and in test [3] (setting [6]) was 0.5 to 2.5 µM each time.
As for `Cc1cnc(Nc2ccc(F)cc2)nc1-n1ccc(C(=O)N[C@H](CO)c2ccc(F)c(Cl)c2)c1` [Example 125, (S)-N-(1-(3-chloro-4-fluorophenyl)-2-hydroxy-ethyl)-1-(2-((4-fluoro-phenyl)-amino)-5-methyl-pyrimidin-4-yl)-1H-pyrrole-3-carboxamide], the IC50 fell in the range of 0.25 to 0.5 µM in test [1] (setting [4]), 0.25 to 0.5 µM in test [2] (setting [5]) and 0.1 to 0.25 µM in test [3] (setting [6]).
`Cc1cnc(Nc2ccc(N3CCOCC3)cc2)nc1-n1ccc(C(=O)NC(CO)c2cccc(Cl)c2)c1` (stereo not drawn) [Example 205, N-(1-(3-chlorophenyl)-2-hydroxyethyl)-1-(5-methyl-2-((4-morpholinophenyl)amino)pyrimidin-4-yl)-1H-pyrrole-3-carboxamide]: the figures for the IC50 in test [1] (setting [4]), in test [2] (setting [5]) and in test [3] (setting [6]) were 0.1 to 0.25 µM, 0.25 to 0.5 µM and 0.1 to 0.25 µM, respectively.
For the compound `Cc1cnc(NC2CCOCC2)nc1-n1cnc(C(=O)NC(C)(C)c2cccc(Cl)c2CO)c1` [Example 341, N-(2-(3-chloro-2-(hydroxymethyl)phenyl)propan-2-yl)-1-(5-methyl-2-((tetrahydro-2H-pyran-4-yl)amino)pyrimidin-4-yl)-1H-imidazole-4-], the 50% inhibitory concentration (IC50) in test [1] (setting [4]) fell in the range of 0.5 to 2.5 µM; in test [2] (setting [5]) it was 0.5 to 2.5 µM; in test [3] (setting [4]), 0.25 to 0.5 µM.
`Cc1cnc(NC2CCCOC2)nc1-n1ccc(C(=O)N[C@H](CO)c2cccc(Cl)c2)c1` (stereo partly drawn) [Example 156, N-((S)-1-(3-chloro-phenyl)-2-hydroxy-ethyl)-1-(5-methyl-2-((tetrahydro-2H-pyran-3-yl)amino)-pyrimidin-4-yl)-1H-pyrrole-3-carboxamide]: the half-maximal inhibitory concentration (IC50) fell in the range of 0.25 to 0.5 µM in test [1] (HT29 cells); 0.5 to 2.5 µM in test [2] (HCT116 cells); 0.25 to 0.5 µM in test [3] (HT29 cells, phospho-RSK1(S380)).
As to `Cc1cnc(Nc2ccc3c(c2)OC(C)(C)O3)nc1-n1ccc(C(=O)NC(CO)c2cccc(Cl)c2)c1` (stereo not drawn) [Example 96, N-(1-(3-chloro-phenyl)-2-hydroxy-ethyl)-1-(2-((2,2-dimethyl-benzo[d][1,3]dioxol-5-yl)amino)-5-methyl-pyrimidin-4-yl)-1H-pyrrole-3-carboxamide], the IC50 in test [1] (setting [4]) was in the range of 0.25 to 0.5 µM; in test [2] (setting [5]) it was 0.5 to 2.5 µM; in test [3] (setting [6]), 0.25 to 0.5 µM.
Turning to `Cc1cn(-c2nc(Nc3ccc(F)cc3)ncc2C)cc1C(=O)NC(CO)c1cccc(Cl)c1` (stereo not drawn) [Example 107, N-(1-(3-chlorophenyl)-2-hydroxy-ethyl)-1-(2-((4-fluoro-phenyl)amino)-5-methyl-pyrimidin-4-yl)-4-methyl-1H-pyrrole-3-carboxamide], the IC50 in test [1] (setting [4]), in test [2] (setting [5]) and in test [3] (setting [6]) was 0.5 to 2.5 µM in each case.
Consider `CC(=O)NCC(NC(=O)c1ccn(-c2nc(Nc3ccc4c(c3)OC(F)(F)O4)ncc2C)c1)c1cccc(Cl)c1` (stereo not drawn) [Example 158, N-(2-acetamido-1-(3-chloro-phenyl)-ethyl)-1-(2-((2,2-difluoro-benzo[d][1,3]dioxol-5-yl)-amino)-5-methyl-pyrimidin-4-yl)-1H-pyrrole-3-carboxamide], for which the IC50 in test [1] (setting [4]) was 0.5 to 2.5 µM; in test [2] (setting [5]), 0.5 to 2.5 µM; in test [3] (setting [6]), over 2.5 µM.
On to `Cc1cnc(Nc2ccc3c(c2)OC(F)(F)O3)nc1-n1ccc(C(=O)NC(CO)c2ccccc2)c1` (stereo not drawn) [Example 63, 1-(2-((2,2-difluoro-benzo[d][1,3]dioxol-5-yl)amino)-5-methyl-pyrimidin-4-yl)-N-(2-hydroxy-1-phenylethyl)-1H-pyrrole-3-carboxamide], for which the figures for the IC50 in test [1] (setting [4]), in test [2] (setting [5]) and in test [3] (setting [6]) were 0.5 to 2.5 µM, 0.5 to 2.5 µM and 0.25 to 0.5 µM, respectively.
On to `Cc1cnc(N[C@H]2CCOC2)nc1-n1cnc(C(=O)NCc2cccc(CO)c2Cl)c1` [Example 338, (S)-N-(2-chloro-3-(hydroxymethyl)benzyl)-1-(5-methyl-2-((tetrahydrofuran-3-yl)amino)pyrimidin-4-yl)-1H-imidazole-4-carboxamide], for which the half-maximal inhibitory concentration (IC50) in test [1] (setting [4]) is over 2.5 µM; in test [2] (setting [5]), 0.5 to 2.5 µM; in test [3] (setting [4]), 0.5 to 2.5 µM.
For `Cc1cnc(NC2CCCN(C)C2)nc1-n1ccc(C(=O)NC(CO)c2cccc(Cl)c2)c1` (stereo not drawn) [Example 199, N-(1-(3-chlorophenyl)-2-hydroxyethyl)-1-(5-methyl-2-((1-methylpiperidin-3-yl)amino)pyrimidin-4-yl)-1H-pyrrole-3-carboxamide], the IC50 in test [1] (setting [4]) was 0.5 to 2.5 µM; in test [2] (setting [5]) it was over 2.5 µM; in test [3] (setting [6]) it was 0.5 to 2.5 µM.

(Values after patent publication US11925629B2, “Heterocyclic inhibitors of ERK1 and ERK2 and their use in the treatment of cancer” (Asana Biosciences, LLC, priority 2015, dated 2024).)
